From PMC6278284, “Synthesis of Jacaranone-Derived Nitrogenous Cyclohexadienones and Their Antiproliferative and Antiprotozoal Activities” (Molecules, 2018)
Read-outs that look alike come from different tables or passages of the source.

Key:
[1] = tested on: P. falciparum, strain NF54, erythrocytic stages; experiment: In vitro growth inhibition assay of Plasmodium falciparum NF54 ([3H]-hypoxanthine incorporation); assay type: cell-based; settings: for IC50: Plasmodium falciparum; for SI (IC50 in L6 cells/IC50 P. falciparum): ratio IC50 L6 / IC50 P. falciparum NF54
Protocol: In vitro activity against erythrocytic stages of P. falciparum was determined by a modified [^3H]-hypoxanthine incorporation assay using the drug-sensitive NF54 strain and the standard drug, chloroquine (Sigma C6628). Briefly, parasite cultures incubated in RPMI 1640 medium with 5% AlbuMAX^TM (without hypoxanthine) were exposed to serial drug dilutions in microtiter plates. After 48 h of incubation at 37 °C in a reduced oxygen atmosphere, 0.5 μCi [^3H]-hypoxanthine was added to each well of the plate. Cultures were incubated for a further 24 h before they were harvested onto glass-fiber filters and washed with distilled water. The radioactivity was counted using a Betaplate^TM liquid scintillation counter (Wallac, Zurich). The results were recorded as counts per minute (CPM) per well at each drug concentration and expressed as a percentage of the untreated controls. IC50 values were calculated from the sigmoidal inhibition curves using Microsoft Excel.

[2] = tested on: MRC-5 non-tumorigenic lung fibroblasts; experiment: XTT viability assay, MRC-5; assay type: cell-based, human; settings: Homo sapiens, MRC5, read-out: metabolic active cells in % of control; for viability at 5 µg/mL: MRC-5, 5 µg/mL; for viability at 5 µg/mL / viability at 50 µg/mL: 72 h; for viability at 50 µg/mL: MRC-5, 50 µg/mL
Protocol: (§1) Human CCRF-CEM leukemia and MDA-MB-231 breast cancer cells lines were kept in RPMI1640 medium (Gibco®, ThermoFisher Scientific Inc., New York, NY, USA), supplemented with 2 mM L-glutamine (Gibco®), 10% heat-inactivated foetal bovine serum (FBS, Gibco®), 100 units/mL Penicillin (PAA), and 100 µg/mL Streptomycin (Gibco®) (1% Pen/Strep). HCT-116 and U251 cells were cultured in high-glucose Dulbecco’s Modified Eagle Medium (DMEM, Gibco®) containing 2 mM L-glutamine, 10% FBS, and 1% Pen/Strep. MRC-5 cells were grown in Minimum Essential Medium (MEM, Gibco®) supplemented with 2 mM L-glutamine, 10% FBS, and 1% Pen/Strep. All cells were kept in a humidified 5% CO2 atmosphere at 37 °C and passaged at 90% confluence.
(§2) A Cell Proliferation Kit II (XTT) was purchased from Sigma-Aldrich and performed as described previously and in accordance with the manufacturer’s protocol. In brief, adherent cell lines were seeded at a density of 50,000 cells/mL or 100,000 cells/mL (MRC-5) in 96 well plates (100 µL, flat bottom) and grown for 24 h before test compounds were added. Suspension cells (CCRF-CEM) were seeded at 100,000 cells/mL and test compounds were added immediately. After 72 h, XTT solution was added for another 90 min or 4 h (CCRF-CEM cells) and absorbance was measured at 490 nm with a reference wave length of 650 nm (Hidex Sense Microplate Reader 425-301, Hidex, Turku, Finland). Results are expressed as a percentage of the vehicle-treated (0.5% DMSO) control cells. Vinblastine served as the positive control (0.01 µg/mL).

U251 glioblastoma cells = experiment: XTT viability assay, U251; assay type: cell-based; settings: Homo sapiens, U-251, read-out: metabolic active cells in % of control; for viability at 5 µg/mL: U251, 5 µg/mL; for viability at 5 µg/mL / viability at 50 µg/mL: 72 h; for viability at 50 µg/mL: U251, 50 µg/mL
Protocol: as §1, §2

[3] = tested on: T. brucei rhodesiense, strain STIB900 trypomastigote forms; experiment: In vitro growth inhibition assay of Trypanosoma brucei rhodesiense (Alamar Blue); assay type: cell-based; settings: for IC50: Trypanosoma brucei, 72 h, read-out: T.b.rhod. IC50; for SI (IC50 in L6 cells/IC50 T. b. rhodesiense): ratio IC50 L6 / IC50 T. b. rhodesiense STIB900
Protocol: Trypanosoma brucei rhodesiense, STIB 900 strain, and the standard drug, melarsoprol, were used for the assay. Minimum Essential Medium (50 μL) supplemented with 25 mM HEPES, 1g/L additional glucose, 1% MEM non-essential amino acids (100×), 0.2 mM 2-mercaptoethanol, 1 mM Na-pyruvate, and 15% heat-inactivated horse serum was added to each well of a 96-well microtiter plate. Serial drug dilutions of 11 three-fold dilution steps covering a range from 100 to 0.002 μg/mL were prepared. Then, 4 × 10^3 bloodstream forms of T. b. rhodesiense (STIB 900) in 50 μL were added to each well and the plate was incubated at 37 °C under a 5% CO2 atmosphere for 72 h. 10 μL Alamar Blue (resazurin, 12.5 mg in 100 mL double-distilled water) was then added to each well and incubation continued for a further 2–4 h. Then, the plates were read with a Spectramax Gemini XS microplate fluorometer (Molecular Devices Cooperation, Sunnyvale, CA, USA) using an excitation wavelength of 536 nm and an emission wavelength of 588 nm. The IC50 values were calculated from the sigmoidal inhibition curves using the microplate reader software, Softmax Pro (Molecular Devices Cooperation, Sunnyvale, CA, USA). Melarsoprol was used as the control.

[4] = tested on: HCT-116 colon cancer cells; experiment: XTT viability assay, HCT-116; assay type: cell-based; settings: Homo sapiens, read-out: metabolic active cells in % of control; for viability at 5 µg/mL: HCT 116, 5 µg/mL; for viability at 5 µg/mL / viability at 50 µg/mL: 72 h; for viability at 50 µg/mL: HCT 116, 50 µg/mL
Protocol: as §1, §2

[5] = tested on: MDA-MB-231 breast cancer cells; experiment: XTT viability assay, MDA-MB-231; assay type: cell-based; settings: Homo sapiens, read-out: metabolic active cells in % of control; for viability at 5 µg/mL: MDA-MB-231, 5 µg/mL; for viability at 5 µg/mL / viability at 50 µg/mL: 72 h; for viability at 50 µg/mL: MDA-MB-231, 50 µg/mL
Protocol: as §1, §2

[6] = tested on: L6 cells rat skeletal myoblasts; experiment: Cytotoxicity against L6 cells (Alamar Blue); assay type: cell-based; settings: read-out: Cyt. L6 IC50
Protocol: Assays were performed in 96-well microtiter plates, each well containing 100 μL of RPMI 1640 medium supplemented with 1% L-glutamine (200 mM) and 10% foetal bovine serum, and 4000 L6 cells (a […] cell line derived from rat skeletal myoblasts). Serial drug dilutions of 11 threefold dilution steps covering a range from 100 to 0.002 μg/mL were prepared. After 72 h of incubation, the plates were inspected under an inverted microscope to assure growth of the controls and sterile conditions. 10 μL of Alamar Blue solution was then added to each well and the plates incubated for another 2 h. Then, the plates were read with a Spectramax Gemini XS microplate fluorometer (Molecular Devices Cooperation, Sunnyvale, CA, USA) using an excitation wavelength of 536 nm and an emission wavelength of 588 nm. The IC50 values were calculated by linear regression from the sigmoidal dose inhibition curves using the microplate reader software, Softmax Pro (Molecular Devices Cooperation, Sunnyvale, CA, USA). Podophyllotoxin (Sigma P4405) was used as the control.

CCRF-CEM leukemia cells = experiment: XTT viability assay, CCRF-CEM; assay type: cell-based; settings: Homo sapiens, read-out: metabolic active cells in % of control; for viability at 5 µg/mL / viability at 50 µg/mL: 72 h
Protocol: as §1, §2

[7] = strain NF54, erythrocytic stages, read-out: P. falc. IC50
[8] = strain STIB900, trypomastigote forms
[9] = L6 rat skeletal myoblasts, 72 h

SMILES | viability at 5 µg/mL [2] [%] | viability at 50 µg/mL [2] [%] | IC50 [1, 7] [µM] | SI (IC50 in L6 cells/IC50 P. falciparum) [1] | viability at 5 µg/mL (U251 glioblastoma cells) [%] | viability at 50 µg/mL (U251 glioblastoma cells) [%] | IC50 [3, 8] [µM] | SI (IC50 in L6 cells/IC50 T. b. rhodesiense) [3] | viability at 5 µg/mL [4] [%] | viability at 50 µg/mL [4] [%] | viability at 5 µg/mL [5] [%] | viability at 50 µg/mL [5] [%] | melting point [°C] | IC50 [6, 9] [µM] | viability at 5 µg/mL (CCRF-CEM leukemia cells) [%] | viability at 50 µg/mL (CCRF-CEM leukemia cells) [%] | further results
CCN(CC)CCCC(C)Nc1ccnc2cc(Cl)ccc12 (centres unmarked) [Chl., Chloroquine, reference compound] |  |  |  |  |  |  |  |  |  |  |  |  |  |  |  |  | IC50 ([1]; NF54, read-out: P. falc. IC50): 0.002 µM
O=C1C=CC(O)(CCN2C(=O)c3ccccc3C2=O)C=C1 [Compound 13a, N-[2-(1-Hydroxy-4-oxocyclohexa-2,5-dien-1-yl)ethyl]phthalimide] | 43.7 | 1.93 | 3.78 | 1.3 | 90.7 | 3.21 | 1.58 | 3.2 | 55.4 | 1.76 | 37.8 | 17.4 | 161 to 162 | 5.08 | 4.42 | 1.15 | 
O=C1C=CC(O)(CCN2C(=O)CCC2=O)C=C1 [Compound 13c, N-[2-(1-Hydroxy-4-oxocyclohexa-2,5-dien-1-yl)ethyl]succinimide] | 139 | 3.55 | 8.63 |  | 93.3 | 0.59 | 6.93 |  | 99 | 1.1 | 79.8 | 5.72 |  | 9.9 | 79.1 | 2.15 | 
O=C1C=CC(O)(CCN2C(=O)c3cc(Cl)c(Cl)cc3C2=O)C=C1 [Compound 13d, 4,5-Dichloro-N-[2-(1-hydroxy-4-oxocyclohexa-2,5-dien-1-yl)ethyl]phthalimide] | 46.4 | 1.01 | 3.24 | 1.9 | 72.1 | 1.79 | 5.71 | 1.1 | 41.2 | 0.44 | 28.6 | 24.8 | 213 to 214 | 6.28 | 13.8 | 3.33 | 
O=C1C=CC(O)(CCN2C(=O)C(Cl)=C(Cl)C2=O)C=C1 [Compound 13e, 3,4-Dichloro-N-[2-(1-hydroxy-4-oxocyclohexa-2,5-dien-1-yl)ethyl]maleimide] | 97 | 0.38 | 74.4 | 0.1 | 95.6 | 1.95 | 2.26 | 4.5 | 45.3 | -0.43 | 81.3 | 9.53 | 168 to 169 | 10.3 | -2.6 | 0.59 | 
O=C1C=CC(O)(CCN2C(=O)C3CCCCC3C2=O)C=C1 (centres unmarked) [Compound 13h, N-[2-(1-Hydroxy-4-oxocyclohexa-2,5-dien-1-yl)ethyl]hexahydrophthalimide] | 57.6 | 0.76 | 3.04 | 1.0 | 74.9 | 0.18 | 1.7 | 1.7 | 44.3 | 0.49 | 70.8 | 16.4 | 135 to 136 | 2.96 | 15.7 | 0.69 | 
O=C1C=CC(O)(CCN2C(=O)C3CCCCC3C2O)C=C1 (centres unmarked) [Compound 15, 3-Hydroxy-N-[2-(1-hydroxy-4-oxocyclohexa-2,5-dien-1-yl)ethyl]octahydroisoindole-1-one] | 135 | 4.47 | 6.18 | 2.0 | 97.6 | 2.24 | 1.52 | 8.3 | 111 | 1.44 | 105 | 6.05 | 127 to 128 | 12.6 | 42.4 | 0.57 | 
Nc1nc(N)nc(Nc2ccc([As]3SCC(CO)S3)cc2)n1 (centres unmarked) [Mel., melarsoprol, reference compound] |  |  |  |  |  |  |  |  |  |  |  |  |  |  |  |  | IC50 [3]: 0.004 µM
COc1cc([C@@H]2c3cc4c(cc3[C@H](O)[C@H]3COC(=O)[C@H]23)OCO4)cc(OC)c1OC [Pod., podophyllotoxin, reference compound] |  |  |  |  |  |  |  |  |  |  |  |  |  |  |  |  | IC50 ([6]; Rattus norvegicus, L6, 72 h): 0.007 µM
CC[C@]1(O)C[C@@H]2CN(CCc3c([nH]c4ccccc34)[C@@](C(=O)OC)(c3cc4c(cc3OC)N(C)[C@H]3[C@@](O)(C(=O)OC)[C@H](OC(C)=O)[C@]5(CC)C=CCN6CC[C@]43[C@@H]65)C2)C1 [VBN, Vinblastine, reference compound] |  |  |  |  |  |  |  |  |  |  |  |  |  |  |  |  | viability at 0.01 µg/mL ([2]; MRC-5, 0.01 µg/mL, positive control): 63.8 ± 5.29%; viability at 0.01 µg/mL (U251 glioblastoma cells; U251, 0.01 µg/mL, positive control): 45.3 ± 3.81%; viability at 0.01 µg/mL ([4]; HCT 116, 0.01 µg/mL, positive control): 39 ± 5.1%; viability at 0.01 µg/mL ([5]; MDA-MB-231, 0.01 µg/mL, positive control): 42 ± 7.97%; viability at 0.01 µg/mL (CCRF-CEM leukemia cells; 0.01 µg/mL, positive control): 23.6 ± 7.62%
